From patent US20250064890A1, “PROTEIN COMPOSITIONS FOR THE TREATMENT OF INFLAMMATORY DISEASES” (Unichem Laboratories Limited, priority 2021, published 2025)

Assays:
[1] = tested on: NF-kB; assay: Multiplex analysis, chemotherapy (5-FU), TR146 cell lysates; format: cell-based, human
Protocol: Oral buccal mucosal cells (TR146) cells were incubated overnight at 37° C. in 5% CO2 incubator. […] The cells were then stimulated with 5-FU (10 mM) for another 24h for chemotherapy and with gamma radiation (3.5 kGy) using Cobalt 60 for radiotherapy. After 24 h, cell culture supernatants were collected from each well and stored at −20° C. till multiplex analysis. For NF-kB estimations, cell lysates were prepared. Levels of biomarkers were estimated using Magpix® multiplex machine. The cells treated with Amifostine (along with 5-FU or radiation) were considered as positive control (PC). Untreated cells (5-FU or radiation alone treated) were used as negative control (NC).
The percent modulation in each sample was determined as follows:
[{Concentration of biomarkers (pg/ml) in Control cells (5-FU or radiation alone treated)−Concentration of biomarkers (pg/ml) in SEQ ID NO: 2+5-FU or radiation treated cells)}/Concentration of biomarkers (pg/ml) in Control cells (5-FU or radiation alone treated)]*100

[2] = tested on: oral (buccal) mucosa cells (TR146); assay: Sub(G0/G1) cell population (cell cycle) against 5-FU induced damage; format: cell-based, human; details: for % Decrease in Apoptotic cells (with respect to control): Sub G0/G1
Protocol: To determine the effect of test item on cell cycle, oral buccal mucosal cells (TR146) were incubated overnight in 5% CO2 incubator at 37° C. for 24 h. […] After 24 h of treatment, cells were exposed to chemotherapy (5-FU 10 mM) for 24 h or radiotherapy (Gamma radiation (3.5 kGy) using Cobalt 60) for 2 h.
After incubation, cells were harvested by trypsinization and processed for Cell cycle assay. Accordingly, cells were harvested into prelabeled centrifuge tubes and centrifuged at 450 g for 5 min at room temperature (RT, low brake). The supernatants were removed carefully and discarded. 1 ml of 1× phosphate buffer saline (PBS) was added to the pellet and resuspended gently to make homogenous suspension. Cells were centrifuged at 450 g for 5 min, RT (low brake). The supernatant was carefully removed leaving behind approx. 100 μl of PBS. Cells were resuspended gently yet thoroughly in residual PBS. Ice-cold 70% ethanol (100 μl) was added drop-wise into cells in each tube while vortexing at low speed (fixation step). Cells stored at 4° C. for 24 h were centrifuged at 450 g for 5 min, RT (low brake). The supernatant was carefully removed without touching the pellet and discarded. 1 ml of 1×PBS was added into pellet and resuspended gently. Cells were incubated for 1 minute at RT. Cells were centrifuged at 450 g for 5 min, RT (low brake). The supernatant was removed carefully without touching the pellet, leaving behind approx. 20-50 μl of PBS. 200 μl of cell cycle reagent was added into each tube. Cells were resuspended gently and mixed. Cells were incubated for 30 min at RT in the dark. The stained samples were transferred into 96-well plates and acquired on flow cytometer (Guava technologies). Percentage of cells in Sub (G0/G1) phase were determined based on the concept that cell cycle reagent contains PI stain, which stains DNA of cells in different phases of cell cycle; Sub (G0/G1), G1, S, G2 and M. Cells in Sub (G0/G1) phase correspond to apoptotic cells. Percent inhibition in apoptotic cells is determined by the formula:
=[(% Sub(G0/G1) cells in 5-FU/radiation alone)−(% Sub(G0/G1) cells in TI+5-FU/radiation)/% Sub(G0/G1) cells in 5-FU/radiation alone]*100

## NCCCNCCSP(=O)(O)O [Amifostine, reference compound]
[1]; 1 μg/ml + 5-FU (10 mM)
  Percentage Inhibition NF-kB: 100%
[1]; 10 μg/ml + 5-FU (10 mM)
  Percentage Inhibition NF-kB: 48.2%
[1]; 50 μg/ml + 5-FU (10 mM)
  Percentage Inhibition NF-kB: 14.2%
[2]; 1 μg/ml + 5FU (10 mM)
  % Apoptotic cells (Sub G0/G1): 13%
  % Decrease in Apoptotic cells (with respect to control): 58%
[2]; 10 μg/ml + 5FU (10 mM)
  % Apoptotic cells (Sub G0/G1): 11.4%
  % Decrease in Apoptotic cells (with respect to control): 63.2%
[2]; 25 μg/ml + 5FU (10 mM)
  % Apoptotic cells (Sub G0/G1): 17%
  % Decrease in Apoptotic cells (with respect to control): 45%
[2]; 50 μg/ml + 5FU (10 mM)
  % Apoptotic cells (Sub G0/G1): 15.1%
  % Decrease in Apoptotic cells (with respect to control): 50.9%
